The values that follow come from US10406233B2, “Telodendrimers with enhanced drug delivery” (priority 2011, dated 2019).

Data set [1] is described as follows: Toxicity monitoring in the therapeutic study (body weight, blood cell counts, serum chemistry, heart histology). Format: in vivo, Raji tumor bearing mice. The method, then:
Subcutaneous Raji lymphoma xenograft mouse model was used to evaluate the therapeutic efficacy of different formulations of DOX. When tumor volume reached 150-300 mm^3, mice were intravenously administrated with PBS, DOX.HCl, Doxil®, or DOX-PEG^5k-CA4^αRh4^ε at the dose of 10 mg/kg DOX equivalent (MTD of free DOX) (n=5-8). The treatment was given every four day on days 0, 4 and 8 for total three doses. Tumor sizes were measured with a digital caliper twice per week. Tumor volume was calculated by the formula (L×W^2)/2, where L is the longest, and W is the shortest in tumor diameters (mm). To compare between groups, relative tumor volume (RTV) was calculated at each measurement time point (where RTV equals the tumor volume at given time point divided by the tumor volume prior to initial treatment). For humane reasons, animals were sacrificed when the implanted tumor volume reached 2000 mm^3, which was considered as the end point of survival data. At day 7 after the last dosage, blood samples were obtained from all the mice for the measurement of blood cell counts, hepatic or renal function tests (ALT, AST, and BUN), and serum enzyme markers of cardiotoxicity including creatine kinase (CK) and lactate dehydrogenase (LDH). One mouse from each group was also sacrificed, and its heart was submitted for histopathology evaluation.

For data set [2], the system named is Subcutaneous Raji lymphoma xenograft. Briefly: In vivo anti-tumor efficacy study. Details: species or system nude mice. The conditions noted are these: 10 mg/kg DOX i.v. days 0, 4, 8.
Description: Lymphoma xenograft mouse models were established by subcutaneously injecting 1×10^7 Raji lymphoma cells in a 100 μL of mixture of PBS and Matrigel (1:1 v/v) at the right flank in female nude mice.
The nature of data set [3]: Maximum tolerated dose (MTD) study. Particulars: mice, intravenous.
[4] abbreviates: day 7 after last dosage, free DOX vs untreated mice, nanoformulations vs free DOX (P<0.05).

Turning to `COc1cccc2c1C(=O)c1c(O)c3c(c(O)c1C2=O)C[C@@](O)(C(=O)CO)C[C@@H]3O[C@H]1C[C@H](N)[C@H](O)[C@H](C)O1.Cl` [free DOX, Doxorubicin hydrochloride], the body weight loss entry in data set [1] (10 mg/kg DOX i.v. days 0, 4, 8) was “significantly higher”. Also, in data set [1] (setting [4]), the “serum level of CK” value was “significantly increased” and the “serum level of LDH” value is on record as “significantly increased”. The WBC count result in data set [1] (day 7 after the last injection, compared to PBS control) is given as “significantly decreased”. In addition, in data set [1] (on day 16), the death result was “one death”. In data set [2], this compound yielded a median survival time of 32 days. Besides, the “median RTV (relative tumor volume)” value in data set [2] (by day 28) turned out to be 9.9. The compound also returned a maximal tolerated dose (MTD) in data set [3] of 10 mg/kg.

As a reminder, the MTD is the highest dose tested that stayed within the study's limit of toxicity.
